According to patent US10940129B2, “Method of treatment for reducing pain sensitization” (priority 2018, dated 2021):
Where a chain is given by its changes, count along the chain named. Where two headings read alike, the source gives them in different places.

Legend:
[1] = tested on: formaldehyde induced pain and toxicity; settings: [Bai, 2012], [Song, 2010]; cited from earlier work
ALDH2*1 = molecular target: T1, ALDH2*1 (Homo sapiens, UniProt P05091); settings: [Perez-Miller, 2010]; cited from earlier work
T1 sequence (P05091 18-517): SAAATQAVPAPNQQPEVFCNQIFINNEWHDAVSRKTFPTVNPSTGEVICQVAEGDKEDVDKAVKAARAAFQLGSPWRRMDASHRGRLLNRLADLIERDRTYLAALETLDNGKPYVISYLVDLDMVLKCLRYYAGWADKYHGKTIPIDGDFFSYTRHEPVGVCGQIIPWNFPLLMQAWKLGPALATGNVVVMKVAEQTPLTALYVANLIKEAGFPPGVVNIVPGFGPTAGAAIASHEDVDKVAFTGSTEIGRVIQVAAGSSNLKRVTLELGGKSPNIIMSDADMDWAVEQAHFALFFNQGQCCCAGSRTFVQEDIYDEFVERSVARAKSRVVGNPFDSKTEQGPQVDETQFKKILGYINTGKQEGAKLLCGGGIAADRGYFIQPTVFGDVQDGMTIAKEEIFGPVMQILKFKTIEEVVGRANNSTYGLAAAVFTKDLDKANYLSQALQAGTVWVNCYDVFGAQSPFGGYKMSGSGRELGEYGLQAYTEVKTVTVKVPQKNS

ALDH2*1/*2 mice = settings: 1.2 g stimulus level, 3 hours after carrageenan; cited from earlier work
[2] = tested on: wild-type and mutant mice; settings: 10 to 40 minutes; formalin (2% aqueous formaldehyde) into the paw; both wild-type and mutant mice; cited from earlier work
ALDH2*2 = molecular target: T2, ALDH2*2 (Homo sapiens, UniProt P05091, E504K); settings: [Chen, 2008]; cited from earlier work
T2 sequence (P05091 18-517 E504K): T1 sequence (P05091 18-517) with E487K

[3] = Computed Log P (PubChem, XLogP3-AA algorithm); settings: worked out from Log P
From the text: Partition coefficient; Log P: The ratio of the concentrations of a solute between two solvents. When one of the solvents is non-polar and the other is water, this is a measure of lipophilicity and the logarithm of the ratio is Log P. Unless otherwise specified, the Log P values reported herein are from the National Library of Medicine “PubChem” database (which uses the XLogP3-AA algorithm for Log P determination).

TRPA1 [4] = settings: low level of 4-HNE; 25 degrees C. to 10 degrees; cited from earlier work
mice = settings: low dose into the hind paws; zero degree cold plate; vehicle 125 seconds; cited from earlier work
mouse TRPA1 = molecular target: T3, mouse TRPA1 (Mus musculus, UniProt Q8BLA8); settings: HEK 293 cells transfected with mouse TRPA1; cited from earlier work
T3 construct: expressed in transfected cells; host or cells: HEK 293
T3 sequence (Q8BLA8 whole entry): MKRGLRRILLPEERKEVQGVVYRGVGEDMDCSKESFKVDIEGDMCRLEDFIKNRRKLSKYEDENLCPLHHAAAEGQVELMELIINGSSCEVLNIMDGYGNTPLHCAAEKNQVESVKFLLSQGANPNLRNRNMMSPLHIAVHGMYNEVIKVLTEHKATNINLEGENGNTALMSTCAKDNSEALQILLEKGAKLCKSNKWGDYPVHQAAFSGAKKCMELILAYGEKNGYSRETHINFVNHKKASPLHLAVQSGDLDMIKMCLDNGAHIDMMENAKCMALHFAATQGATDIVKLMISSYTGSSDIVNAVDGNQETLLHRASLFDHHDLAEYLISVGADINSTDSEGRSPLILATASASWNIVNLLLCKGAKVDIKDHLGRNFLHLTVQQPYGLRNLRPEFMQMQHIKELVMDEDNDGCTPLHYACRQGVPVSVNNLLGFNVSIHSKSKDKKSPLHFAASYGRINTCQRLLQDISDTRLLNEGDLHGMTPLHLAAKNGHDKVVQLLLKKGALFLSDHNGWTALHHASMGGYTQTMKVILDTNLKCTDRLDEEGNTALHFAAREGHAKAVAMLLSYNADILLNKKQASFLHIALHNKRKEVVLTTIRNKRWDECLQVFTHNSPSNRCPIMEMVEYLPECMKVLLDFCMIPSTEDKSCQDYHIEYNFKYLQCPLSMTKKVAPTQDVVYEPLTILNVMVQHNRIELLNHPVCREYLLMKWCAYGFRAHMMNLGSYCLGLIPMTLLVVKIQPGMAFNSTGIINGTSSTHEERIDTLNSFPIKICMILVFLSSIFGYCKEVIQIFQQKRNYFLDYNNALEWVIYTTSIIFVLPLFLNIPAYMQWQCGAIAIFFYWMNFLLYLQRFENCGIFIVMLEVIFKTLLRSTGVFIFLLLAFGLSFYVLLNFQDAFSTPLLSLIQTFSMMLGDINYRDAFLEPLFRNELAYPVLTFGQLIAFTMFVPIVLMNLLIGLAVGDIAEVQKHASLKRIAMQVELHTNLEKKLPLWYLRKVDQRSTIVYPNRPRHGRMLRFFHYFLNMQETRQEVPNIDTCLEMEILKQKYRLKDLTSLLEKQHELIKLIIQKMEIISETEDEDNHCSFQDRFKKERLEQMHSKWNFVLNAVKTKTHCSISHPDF

TRPA1 [5] = molecular target: TRPA1 (Homo sapiens, UniProt O75762); assay: TRPA1 agonist activity
Sequence of TRPA1 (Homo sapiens, UniProt O75762) (O75762 whole entry, species assumed): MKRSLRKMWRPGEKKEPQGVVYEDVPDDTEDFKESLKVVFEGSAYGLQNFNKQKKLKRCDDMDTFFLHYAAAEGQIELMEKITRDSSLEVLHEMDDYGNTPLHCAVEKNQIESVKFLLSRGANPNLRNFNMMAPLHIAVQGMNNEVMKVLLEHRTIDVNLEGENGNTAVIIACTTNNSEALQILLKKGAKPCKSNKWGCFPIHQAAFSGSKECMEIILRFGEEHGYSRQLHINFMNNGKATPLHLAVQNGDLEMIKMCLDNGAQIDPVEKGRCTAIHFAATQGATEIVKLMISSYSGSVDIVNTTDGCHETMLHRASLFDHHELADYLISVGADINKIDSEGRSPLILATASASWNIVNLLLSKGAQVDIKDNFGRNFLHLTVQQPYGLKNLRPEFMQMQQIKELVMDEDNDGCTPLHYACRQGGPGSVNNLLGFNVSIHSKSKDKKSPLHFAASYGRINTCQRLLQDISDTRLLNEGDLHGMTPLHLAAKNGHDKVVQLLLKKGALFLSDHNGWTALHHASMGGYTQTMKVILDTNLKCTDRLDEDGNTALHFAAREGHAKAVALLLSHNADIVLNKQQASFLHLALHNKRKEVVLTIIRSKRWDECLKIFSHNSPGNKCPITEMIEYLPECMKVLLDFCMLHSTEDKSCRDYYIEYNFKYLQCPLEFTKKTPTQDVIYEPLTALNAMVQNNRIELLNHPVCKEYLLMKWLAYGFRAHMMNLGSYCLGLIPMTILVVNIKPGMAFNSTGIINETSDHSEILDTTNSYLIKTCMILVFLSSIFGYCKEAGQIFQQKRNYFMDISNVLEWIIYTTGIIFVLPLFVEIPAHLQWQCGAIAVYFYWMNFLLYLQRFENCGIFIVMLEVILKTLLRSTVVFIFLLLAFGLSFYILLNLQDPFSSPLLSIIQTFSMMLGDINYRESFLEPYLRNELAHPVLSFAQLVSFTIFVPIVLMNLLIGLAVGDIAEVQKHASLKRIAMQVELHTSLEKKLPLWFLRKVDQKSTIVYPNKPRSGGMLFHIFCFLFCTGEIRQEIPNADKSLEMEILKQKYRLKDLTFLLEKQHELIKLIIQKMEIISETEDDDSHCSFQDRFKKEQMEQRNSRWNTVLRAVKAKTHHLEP

[6] = tested on: ALDH2*1/*2 mutant and wild-type mice; settings: cited from earlier work; for licking or flinching: 100 ng into a rear paw
chronic pain = assay: Self-reports of voluntary evaluators taking Protein-Allium (10 point pain scale, symptoms, side effects)
From the text: On a 10 point pain scale the pain level was 10.
On a 10 point pain scale, the pain level was 10.

[7] = tested on: glutathione content of cells; settings: daily dosage of 1000 mg; patients; cited from earlier work
male rats = settings: 5 day course started 10 days after chronic constriction injury; cited from earlier work

NNCCc1ccccc1 [Phenelzine]
reducing formaldehyde induced pain and toxicity [1]: effective

O=C(NCc1ccc2c(c1)OCO2)c1c(Cl)cccc1Cl [Alda-1]
efficiency of ALDH2*1 (ALDH2*1): doubles | less sensitive to mechanical pain than wild-type mice without treatment (ALDH2*1/*2 mice): ~30% | decrease of early second phase pain response [2]: ~60% | increase of the activity of ALDH2*2 (ALDH2*2): 2.2 fold

CCCSSCCC [disulfide from propyl mercaptan, dipropyl disulfide]
concentration on the oily (lipid) side relative to the aqueous side [3]: about 500 times

CCCCCC(O)C=CC=O (centres unmarked) [4-hydroxy-2-nonenal (4-HNE), 4-hydroxy-2-nonenal]
potentiation of current flow by lowering the temperature (TRPA1 [4]): 3 factor | time to first jump (mice): 20 s

O[C@H](CS)[C@H](O)CS (racemic) [dithiothreitol]
effect on H2O2-induced Ca^2+ increase (mouse TRPA1): markedly decreased

CCCCC/C=C/C=C1/C(=O)C=C[C@@H]1C/C=C\CCCC(=O)O [15d-PGJ2]
more active than 4-HNE (TRPA1 [5]): ~10

CC=O [acetylaldehyde]
licking or flinching ([6]; mutant mice): 5 s | licking or flinching ([6]; wild-type mice): 4 s | mutant mice more sensitive to pressure (nociceptive threshold) ([6]; after injection, mutant vs wild-type mice): 4 times

N[C@@H](CCS)C(=O)O [Homocysteine, (S)-2-Amino-4-mercaptobutyric acid]
more hydrophilic than cysteine [3]: ~10 ×

C=CCSSCC=C [Diallyl disulfide]
concentration on the oily (lipid) side relative to the aqueous side [3]: about 160 times

CC12CCC(CC1=O)C2(C)C (centres unmarked) [camphor]
effect on H2O2-induced Ca^2+ increase (mouse TRPA1): prevents

COc1ccc2cc([C@H](C)C(=O)O)ccc2c1 [Naprosyn]
pain level, adenomyosis (chronic pain; 10-point pain scale, subject two): 4

catalase
effect on H2O2-induced Ca^2+ increase (mouse TRPA1): abolished

C[C@]12CCC(=O)C=C1CC[C@@H]1[C@@H]2C(=O)C[C@@]2(C)[C@H]1CC[C@]2(O)C(=O)CO [cortisone]
benefit on back pain (chronic pain; injection, subject one): minimal benefit

O=C1O[C@H]([C@@H](O)CO)C(O)=C1O [vitamin C]
mean percentage decrease of glutathione [7]: 60%

NCC1(CC(=O)O)CCCCC1 [Gabapentin]
side effects (chronic pain; self-report): bad side effects (drowsiness) | muscle memory (residual pain), shoulder neuropathy (chronic pain; subject two): always had muscle memory of the pain

CCCS [Propyl mercaptan, 1-PropaneThiol]
concentration on the oily (lipid) side relative to the aqueous side [3]: about 65 times

N[C@@H](CS)C(=O)O [cysteine, (R)-2-Amino-3-mercaptopropanoic acid]
partitions into water vs. oil [3]: ~300 to 1

c1ccc(SSc2ccccn2)nc1 [2,2′-dipyridyl disulfide]
intracellular Ca^2+ (mouse TRPA1): increased intracellular Ca^2+ in a dose-dependent manner

CN1CC[C@]23c4c5ccc(O)c4O[C@H]2[C@@H](O)C=C[C@H]3[C@H]1C5 [morphine]
duration of injury-related allodynia (male rats): more than doubling
